In patent US20240002429A1, “PRODRUG OF 5a-HYDROXY-6ß-[2-(1H-IMIDAZOL-4-YL)ETHYLAMINO]CHOLESTAN-3ß-OL AND PHARMACEUTICAL COMPOSITIONS COMPRISING SAME FOR USE IN THE TREATMENT OF CANCER” (priority 2020, published 2024):
pIC50: −log10 of the molar value.

What was measured:
[1] = tested on: BT-474 human mammary tumor cells; experiment: Cytotoxicity on BT-474 cells, LDH; type: cell-based; details: BT-474, LDH, 48 h; for Mean LogIC50 (±SEM): log of IC50 in μM; for pIC50: Homo sapiens, read-out: IC50
Protocol: (§1) For the second method, the percentage viability is determined using assay of the activity of the enzyme LDH (lactate dehydrogenase) in the cellular supernatants using the kit non radioactive cytotoxicity assay kit (Promega). LDH is an enzyme released in the supernatant of dead cells. The higher the LDH activity in the supernatant, the greater is the cell death. In this enzyme test, the LDH released converts a violet tetrazolium salt to formazan, of red color, absorbing at 490 nm. The intensity of the red color is proportional to the number of dead cells. After 48 h of treatment, the supernatants are transferred to a new 96-well plate and are incubated for 30 minutes in the presence of the substrate mix at room temperature. The reaction is stopped using the stop buffer and the absorbance is determined at 490 nm. The percentage cell death is determined here using a control 100% of maximum activity of LDH (carried out with untreated cells incubated in the presence of the lysis solution for 45 minutes at 37° C. just before adding the substrate mix), and the cellular viability in each well is then deduced from this percentage. IC50 is then determined as explained in the preceding paragraph.
(§2) The cellular viability tests were also carried out on BT-474 human mammary tumor cells (characterized as being positive triples HER2+, ER+, PR+). The BT-474 cells are in a cell culture medium identical to the preceding example and are seeded in 24-well plates at 70 000 cells per well, for determination of cellular viability using trypan blue, or in 96-well plates at 13 000 cells per well for determination of cellular viability using the MTT or LDH assay. After 96 hours (h) of culture in normal conditions, i.e. in an incubator at a temperature of 37° C. at 5% CO2, the BT-474 cells are treated for 48 h with DX101, DX107, and DX113 at 100 nM, 1 μM, 2.5 μM and 10 μM. A control is also carried out using the protocol described above but without treatment with the molecules DX101, DX107, DX113, DX117, DX119, DX121 or DX131.
(§3) After trypsin digestion for 10 minutes at 37° C., cell survival was quantified, also by a trypan blue assay with automatic counting with the Biorad TC20 equipment (TC20™ Automated Cell Counter). The trypan blue assay is based on the cell membrane integrity, which is broken in the dead cells. Trypan blue stains the dead cells blue. The Biorad TC20 cell counter counts the proportion of blue cells and non-blue cells, relative to the cell percentages. The percentage viability is then determined in each well relative to the untreated cells and the IC50 is determined as explained in the preceding example. The percentage viability of the BT-474 cells was determined using the MTT and LDH assay, carried out as described in the preceding example.

[2] = tested on: BT-474 human mammary tumor cells; experiment: Cytotoxicity on BT-474 cells, MTT; type: cell-based; details: BT-474, MTT, 48 h; for Mean LogIC50 (±SEM): log of IC50 in μM; for pIC50: Homo sapiens, read-out: IC50
Protocol: (§4) Cellular viability is measured by three different methods. For the first method, MTT labeling is carried out at 48 hours. This test is based on the use of the tetrazolium salt MTT (3-(4,5-dimethylthiazol-2-yl)-2,5-diphenyltetrazolium bromide). The tetrazolium is reduced by mitochondrial succinate dehydrogenase of active living cells, to formazan, a precipitate of a violet color. The quantity of precipitate formed is proportional to the quantity of living cells but also to the metabolic activity of each cell. […] After 48 hours, the medium is aspirated, and the cells are incubated with MTT (0.5 mg/ml in culture medium) for about 3 hours. The MTT solution is aspirated and the violet crystals are dissolved in dimethylsulfoxide (DMSO). The OD (optical density) is measured at 550 nm. The percentage viability is then determined in each well relative to the CTL and the IC50 (concentration for which there are still 50% of living cells) is determined for each molecule with Prism software using the nonlinear regression straight line (log(inhibitor) vs. Response).
as §2, §3

4T1 cells [3] = experiment: Cytotoxicity on 4T1 cells, MTT; type: cell-based, murine; details: Mus musculus, 4T1, MTT, 48 h; for IC50: log of IC50 in μM, read-out: Mean LogIC50 (±SEM) (converted); for pIC50: read-out: IC50
Protocol: (§5) The cellular viability tests were carried out on murine mammary tumor 4T1 cells characterized as negative triples (HER2−, ER−, PR−).
(§6) For this experiment, a cell culture medium was prepared. The culture medium consists of Dulbecco's Modified Eagle Medium (DMEM, marketed by Westburg under the reference LO BE12-604F), comprising 4.5 g/L glucose with L-glutamine, to which 10% of fetal calf serum (FCS) and 50 U/mL of penicillin/streptomycin are added. The 4T1 cells are introduced into this culture medium.
(§7) 96-well plates were seeded with 2000 4T1 cells per well. After 72 hours (h) of culture in normal conditions, i.e. in an incubator at a temperature of 37° C. at 5% CO2, the 4T1 cells are treated for 48 h with DX101, DX107, DX113, DX117, DX119, DX121 or DX131 at 100 nM, 1 μM, 2.5 μM and 10 μM. A control condition (CTL) is also carried out in parallel using the protocol described above but without treatment with the molecules DX101, DX107, DX113, DX117, DX119, DX121, DX131 or DX133.
as §4

4T1 cells [4] = experiment: Cytotoxicity on 4T1 cells, CellTox Green Cytotoxicity Assay; type: cell-based, murine; details: Mus musculus, 4T1, Green Cytotoxicity Assay, 48 h; for IC50: log of IC50 in μM, read-out: Mean LogIC50 (±SEM) (converted); for pIC50: read-out: IC50
Protocol: as §5, §6, §7
For the third method, the percentage viability is determined using the kit CellTox Green Cytotoxicity Assay (Promega). This assay measures cell death via a change in membrane integrity. […] As a result, the higher the fluorescence in the wells, the greater is the cell death. After 48 h of treatment, the cells are incubated for a minimum of 15 minutes in the presence of the Celltox green reagent at room temperature and the fluorescence is read at […]. The percentage cell death is determined using the control 100% of cell death (carried out for untreated cells incubated in the presence of the lysis solution for 30 minutes at 37° C. before adding the Celltox green reagent), and the cellular viability in each well is then deduced from this percentage. IC50 is then determined as explained above.

4T1 cells [5] = experiment: Cytotoxicity on 4T1 cells, LDH; type: cell-based, murine; details: Mus musculus, 4T1, LDH, 48 h; for IC50: log of IC50 in μM, read-out: Mean LogIC50 (±SEM) (converted); for pIC50: read-out: IC50
Protocol: as §5, §6, §7, §1

[6] = Pharmacokinetic study of DX117 (LC/MS in plasma); type: in vivo; details: rat, 50 mg/kg, administered compound assayed
From the text: (§8) The following study is a determination by LC/MS in plasma of the various molecules over 3 days (11 measurement points at the end). The graphs are always presented in comparison with DX101, which is the reference. […]

[7] = tested on: BT-474 human mammary tumor cells; experiment: Cytotoxicity on BT-474 cells, trypan blue; type: cell-based; details: BT-474, trypan blue, 48 h
Protocol: as §2, §3

[8] = Pharmacokinetic study of DX121 (LC/MS in plasma); type: in vivo; details: rat, oral 50 mg/kg, administered compound assayed
From the text: as §8

Structure (SMILES) | Mean LogIC50 (±SEM) [1] | pIC50 [1] | Mean LogIC50 (±SEM) [2] | pIC50 [2] | IC50 (4T1 cells [3]) | pIC50 (4T1 cells [3]) | IC50 (4T1 cells [4]) | pIC50 (4T1 cells [4]) | IC50 (4T1 cells [5]) | pIC50 (4T1 cells [5]) | Concentration max [6] | Area under curve ([6]; 0-72 h) | Mean LogIC50 (±SEM) ([7]; log of IC50 in μM) | pIC50 ([7]; Homo sapiens) | Concentration max [8] | Area under curve ([8]; 0-72 h)
CCCCOC(=O)O[C@H]1CC[C@]2(C)[C@H]3CC[C@]4(C)[C@@H]([C@H](C)CCCC(C)C)CC[C@H]4[C@@H]3C[C@@H](NCCc3c[nH]cn3)[C@@]2(O)C1 [DX119, 5α-hydroxy-6β-[2-(1H-imidazol-4-yl)ethylamino]cholestan-3β-yl butyl carbonate] | 1.41 ± 0.01 | 4.59 | 1.33 ± 0.06 | 4.84 | 9.33 µM | 5.03 | 3.63 µM | 5.44 | 3.09 µM | 5.51 | – | – | – | – | – | –
CC(C)CCCC(C)[C@H]1CCC2C3C[C@@H](NCCc4c[nH]cn4)[C@@]4(O)C[C@@H](OC(=O)NCCc5c[nH]cn5)CC[C@]4(C)C3CC[C@@]21C (stereo partly drawn) [DX117, 5α-hydroxy-6β-[2-(1H-imidazol-4-yl)ethylamino]-cholestan-3β-yl-(2-(1H-imidazol-4-yl)ethyl)carbamate] | 0.72 ± 0.18 | 5.28 | 0.79 ± 0.06 | 5.21 | 11 µM | 4.96 | 9.55 µM | 5.02 | 8.32 µM | 5.08 | 76.67 nM | 2123 | – | – | – | –
CCCCCC(=O)O[C@H]1CC[C@]2(C)[C@H]3CC[C@]4(C)[C@@H]([C@H](C)CCCC(C)C)CC[C@H]4[C@@H]3C[C@@H](NCCc3cnc[nH]3)[C@@]2(O)C1 [DX113, 5α-hydroxy-6β-[2-(1H-imidazol-4-yl)-ethylamino]-cholestan-3β-yl hexanoate] | 1.38 ± 0.07 | 4.63 | 1.33 ± 0.07 | 4.67 | 18.2 µM | 4.74 | 11 µM | 4.96 | 5.25 µM | 5.28 | – | – | 1.09 ± 0.15 | 4.91 | – | –
CCOC(=O)O[C@H]1CC[C@]2(C)[C@H]3CC[C@]4(C)[C@@H]([C@H](C)CCCC(C)C)CC[C@H]4[C@@H]3C[C@@H](NCCc3c[nH]cn3)[C@@]2(O)C1 [DX121, 5α-hydroxy-6β-[2-(1H-imidazol-4-yl)ethylamino]cholestan-3β-yl ethyl carbonate] | 1.47 ± 0.40 | 4.93 | 1.05 ± 0.17 | 4.95 | 11 µM | 4.96 | 6.61 µM | 5.18 | 4.68 µM | 5.33 | – | – | – | – | 96.33 nM | 1000
